Measurements published in patent US6355799B1, “Substituted benzene compounds, process for their preparation, and herbicidal and defoliant compositions containing them” (ISK Americas Incorporated, priority 1997, dated 2002).

How the values were obtained:
Assay type in all cases: in vivo
[1] = test system: upland rice (Oryza sp., var. Tebonnet, RICE); assay: Post-emerge test, crop safety; settings: post-emerge, 14 days after application, rating scale 0-100
Summary of the method: (§1)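 Fourteen days after spraying, crop and weed injury was graded visually from 0, no effect, to 100, every plant dead. Test substances were dissolved in acetone and applied at 15–1000 g ai/ha with a flat-fan nozzle. Application was either pre-emergence, one day after sowing, or post-emergence at the 2–3 leaf stage.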

[2] = test system: field corn (Zea mays L., var. Dekalb 535, CORN); assay: Post-emerge test, crop safety; settings: post-emerge, 14 days after application, rating scale 0-100
Summary of the method: as §1

[3] = test system: common ragweed (Ambrosia artemisizfolia L., AMBEL); assay: Post-emerge test, greenhouse herbicide activity screening; settings: post-emerge, 14 days after application, rating scale 0-100
Summary of the method: (§2)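 Rating: 0–100 visual injury, 14 DAA. Application: acetone, 187 l/ha, 15–1000 g ai/ha, flat-fan track sprayer with nozzle 40–45 cm above soil or canopy. Post-emerge runs used 0.25% v/v surfactant on 2–3 leaf plants.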

[4] = test system: redroot pigweed (Amaranthus retroflexus, AMARE); assay: as above; settings: post-emerge, 14 days after application, rating scale 0-100
Summary of the method: as §2

[5] = test system: johnsongrass (Sorghum halepense, SORHA); assay: as above; settings: post-emerge, 14 days after application, rating scale 0-100
Summary of the method: as §2

[6] = test system: lambsquarters (Chenopodium album, CHEAL); assay: as above; settings: post-emerge, 14 days after application, rating scale 0-100
Summary of the method: as §2

[7] = test system: large crabgrass (Digitaria sanguinalis, DIGSA); assay: as above; settings: post-emerge, 14 days after application, rating scale 0-100
Summary of the method: as §2

[8] = test system: ivyleaf morningglory (Ipomoea hederacea, IPOHE); assay: as above; settings: post-emerge, 14 days after application, rating scale 0-100
Summary of the method: as §2

[9] = test system: green foxtail (Setaria viridis, SETVI); assay: as above; settings: post-emerge, 14 days after application, rating scale 0-100
Summary of the method: as §2

[10] = test system: barnyardgrass (Echinochloa crus-galli, ECHCG); assay: as above; settings: post-emerge, 14 days after application, rating scale 0-100
Summary of the method: as §2

[11] = test system: sicklepod (Cassia obtusifolia, CASOB); assay: as above; settings: post-emerge, 14 days after application, rating scale 0-100
Summary of the method: as §2

[12] = test system: velvetleaf (Abutilon theophrasti, ABUTH); assay: as above; settings: post-emerge, 14 days after application, rating scale 0-100
Summary of the method: as §2

[13] = test system: common ragweed (Ambrosia artemisizfolia L., AMBEL); assay: Pre-emerge test, greenhouse herbicide activity screening; settings: rated 14 days after application, 0 = no damage, 100 = complete death
Summary of the method: as §1

[14] = test system: johnsongrass (Sorghum halepense, SORHA); assay: as above; settings: rated 14 days after application, 0 = no damage, 100 = complete death
Summary of the method: as §1

[15] = test system: lambsquarters (Chenopodium album, CHEAL); assay: as above; settings: rated 14 days after application, 0 = no damage, 100 = complete death
Summary of the method: as §1

[16] = test system: large crabgrass (Digitaria sanguinalis, DIGSA); assay: as above; settings: rated 14 days after application, 0 = no damage, 100 = complete death
Summary of the method: as §1

[17] = test system: ivyleaf morningglory (Ipomoea hederacea, IPOHE); assay: as above; settings: rated 14 days after application, 0 = no damage, 100 = complete death
Summary of the method: as §1

[18] = test system: green foxtail (Setaria viridis, SETVI); assay: as above; settings: rated 14 days after application, 0 = no damage, 100 = complete death
Summary of the method: as §1

[19] = test system: barnyardgrass (Echinochloa crus-galli, ECHCG); assay: as above; settings: rated 14 days after application, 0 = no damage, 100 = complete death
Summary of the method: as §1

[20] = test system: sicklepod (Cassia obtusifolia, CASOB); assay: as above; settings: rated 14 days after application, 0 = no damage, 100 = complete death
Summary of the method: as §1

[21] = test system: velvetleaf (Abutilon theophrasti, ABUTH); assay: as above; settings: rated 14 days after application, 0 = no damage, 100 = complete death
Summary of the method: as §1

[22] = test system: redroot pigweed (Amaranthus retroflexus, AMARE); assay: as above; settings: rated 14 days after application, 0 = no damage, 100 = complete death
Summary of the method: as §2

[23] = test system: upland rice (Oryza sp., var. Tebonnet, RICE); assay: Pre-emerge test, crop safety; settings: rated 14 days after application, 0 = no damage, 100 = complete death
Summary of the method: (§3)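 Compounds in acetone were track-sprayed at 187 l/ha, 15–1000 g ai/ha, onto sandy loam pots. Pre-emerge seeds were sown one day before spraying, with surface watering afterwards. Post-emerge plants were at the 2–3 leaf stage and sprayed with 0.25% v/v non-ionic surfactant. Injury was rated 0–100 at 14 days.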

[24] = test system: field corn (Zea mays L., var. Dekalb 535, CORN); assay: Pre-emerge test, crop safety; settings: rated 14 days after application, 0 = no damage, 100 = complete death
Summary of the method: as §3

COc1c(Cl)cc(F)c(-n2c(=O)cc(C(F)(F)F)n(C)c2=O)c1NC(=O)c1c(F)cccc1F [2-47]
phytotoxicity rating RICE ([1]; 63 g ai/ha): 20 | phytotoxicity rating RICE ([1]; 250 g ai/ha): 45 | phytotoxicity rating CORN ([2]; 63 g ai/ha): 10 | phytotoxicity rating CORN ([2]; 250 g ai/ha): 15 | phytotoxicity rating AMBEL ([3]; 63 g ai/ha): 50 | phytotoxicity rating AMBEL ([3]; 250 g ai/ha): 90 | phytotoxicity rating AMARE ([4]; 63 g ai/ha): 90 | phytotoxicity rating AMARE ([4]; 250 g ai/ha): 100 | phytotoxicity rating SORHA ([5]; 63 g ai/ha): 0 | phytotoxicity rating SORHA ([5]; 250 g ai/ha): 0 | phytotoxicity rating CHEAL ([6]; 63 g ai/ha): 80 | phytotoxicity rating CHEAL ([6]; 250 g ai/ha): 100 | phytotoxicity rating DIGSA ([7]; 63 g ai/ha): 0 | phytotoxicity rating DIGSA ([7]; 250 g ai/ha): 0 | phytotoxicity rating IPOHE ([8]; 63 g ai/ha): 70 | phytotoxicity rating IPOHE ([8]; 250 g ai/ha): 100 | phytotoxicity rating SETVI ([9]; 63 g ai/ha): 20 | phytotoxicity rating SETVI ([9]; 250 g ai/ha): 30 | phytotoxicity rating ECHCG ([10]; 63 g ai/ha): 0 | phytotoxicity rating ECHCG ([10]; 250 g ai/ha): 10 | phytotoxicity rating CASOB ([11]; 63 g ai/ha): 70 | phytotoxicity rating CASOB ([11]; 250 g ai/ha): 100 | phytotoxicity rating ABUTH ([12]; 63 g ai/ha): 100 | phytotoxicity rating ABUTH ([12]; 250 g ai/ha): 100 | Pre-emerge Herbicidal Activity, phytotoxicity rating (0-100), AMBEL ([13]; 63 g ai/ha): 50 | Pre-emerge Herbicidal Activity, phytotoxicity rating (0-100), AMBEL ([13]; 250 g ai/ha): 100 | Pre-emerge Herbicidal Activity, phytotoxicity rating (0-100), SORHA ([14]; 63 g ai/ha): 60 | Pre-emerge Herbicidal Activity, phytotoxicity rating (0-100), SORHA ([14]; 250 g ai/ha): 90 | Pre-emerge Herbicidal Activity, phytotoxicity rating (0-100), CHEAL ([15]; 63 g ai/ha): 100 | Pre-emerge Herbicidal Activity, phytotoxicity rating (0-100), CHEAL ([15]; 250 g ai/ha): 100 | Pre-emerge Herbicidal Activity, phytotoxicity rating (0-100), DIGSA ([16]; 63 g ai/ha): 100 | Pre-emerge Herbicidal Activity, phytotoxicity rating (0-100), DIGSA ([16]; 250 g ai/ha): 100 | Pre-emerge Herbicidal Activity, phytotoxicity rating (0-100), IPOHE ([17]; 63 g ai/ha): 100 | Pre-emerge Herbicidal Activity, phytotoxicity rating (0-100), IPOHE ([17]; 250 g ai/ha): 100 | Pre-emerge Herbicidal Activity, phytotoxicity rating (0-100), SETVI ([18]; 63 g ai/ha): 100 | Pre-emerge Herbicidal Activity, phytotoxicity rating (0-100), SETVI ([18]; 250 g ai/ha): 100 | Pre-emerge Herbicidal Activity, phytotoxicity rating (0-100), ECHCG ([19]; 63 g ai/ha): 0 | Pre-emerge Herbicidal Activity, phytotoxicity rating (0-100), ECHCG ([19]; 250 g ai/ha): 99 | Pre-emerge Herbicidal Activity, phytotoxicity rating (0-100), CASOB ([20]; 63 g ai/ha): 90 | Pre-emerge Herbicidal Activity, phytotoxicity rating (0-100), CASOB ([20]; 250 g ai/ha): 100 | Pre-emerge Herbicidal Activity, phytotoxicity rating (0-100), ABUTH ([21]; 63 g ai/ha): 100 | Pre-emerge Herbicidal Activity, phytotoxicity rating (0-100), ABUTH ([21]; 250 g ai/ha): 100 | Pre-emerge Herbicidal Activity, phytotoxicity rating (0-100), AMARE ([22]; 63 g ai/ha): 100 | Pre-emerge Herbicidal Activity, phytotoxicity rating (0-100), AMARE ([22]; 250 g ai/ha): 100 | Pre-emerge phytotoxicity rating (0-100), crop damage, RICE ([23]; 63 g ai/ha): 70 | Pre-emerge phytotoxicity rating (0-100), crop damage, RICE ([23]; 250 g ai/ha): 95 | Pre-emerge phytotoxicity rating (0-100), crop damage, CORN ([24]; 63 g ai/ha): 40 | Pre-emerge phytotoxicity rating (0-100), crop damage, CORN ([24]; 250 g ai/ha): 99
